Reference: patent US7994125B2, “Stem cell factor for preventing chemotherapy-induced depletion of blood cells” (Istituto Superiore Di Sanita, priority 2003, dated 2011)

Legend:
CD34 positive cells = test: Protection of proliferating CD34 positive cells from chemotherapeutic agents in vitro; format: cell-based
Experimental: (§1) Adult peripheral blood human progenitor cell (HPC) purification and culture. Adult peripheral blood was obtained from male donors after their informed consent and the approval by the Committee for Human Studies. Human CD34^+ precursor cells were purified from peripheral blood by positive selection using the midi-MACS immunomagnetic separation system (Miltenyi Biotec, Bergisch Gladbach, Germany) according to the manufacturer's instructions. CD34^+ precursors were cultured in serum-free medium supplemented with 0.01 U/ml interleukin-3 (IL-3), 0.001 ng/ml GM-CSF and 3 U/ml Epo to induce unilineage erythroid differentiation. […] Cell viability was evaluated by ethidium bromide-acridine orange staining and fluorescence microscopy analysis.^15 The differentiation stage of erythroid precursor cells was evaluated by May-Grünwald-Giemsa staining and cytologic analysis. Ziegler B, Testa U, Condorelli G, Vitelli L, Valtieri M, Peschle C. Unilineage hematopoietic differentiation in bulk and single cell culture. Stem Cells. 1998; 16(suppl 1):51-73. For clonogenetic assay, 10^2 CD34^+ cells and 2×10^2 cells from day 5 or day 7 unilineage erythroid cultures were plated in duplicate in 0.9% methylcellulose containing 40% FCS and saturating concentrations of erythropoietin (3 U/mL), TPO (50 ng/mL), granulocyte macrophage-colony stimulating factor (GM-CSF; 10 ng/mL), M-CSF (250 U/mL), G-CSF (500 U/mL), IL-6 (10 ng/mL), stem cell factor (100 ng/mL), Flt3 ligand (100 ng/mL), and IL-3 (100 U/mL). Colonies were scored after 14 days of culture at 37° C. in a 5% CO2/5% O2/90% N2 humidified atmosphere.

CD34+ progenitors = test: Chemosensitivity of CD34+ progenitors, cell death by ethidium bromide/acridine orange staining; format: cell-based, human; settings: CD34+ cells; 24 hours; 1.5 μg/ml cisplatin or 50 ng/ml camptothecin; standard erythroid medium
Description: (§2) FIG. 1. Chemosensitivity of CD34^+ progenitors and erythroid precursors.
(§3) Unilineage hematopoietic differentiation in bulk and single cell culture. Stem Cells. 1998; 16(suppl 1):51-73.
(§4) Nature. […] Unilineage hematopoietic differentiation in bulk and single cell culture. Stem Cells. 1998; 16(suppl 1):51-73).

[1] = test system: day 7 (pro/basophilic) erythroblasts
Experimental: as §2
(§5) FIG. 2. […] After 24 hours the percentage of cell death was determined by ethidium bromide/acridine orange staining.
as §1

[2] = test system: caspase 3, caspase 7 and caspase 8
Experimental: as §5
(§6) FIG. 4. […] After 48 hours, 4×10^4 cells were washed and replated in standard erythroid medium with or without 100 ng/ml SCF.
Western blotting. For detection of caspases, protein extracts were prepared by resuspending cell pellets in 1% NP40 lysis buffer (20 mM Tris/HCl pH 7.2, 200 mM NaCl, 1% NP40) in the presence of 1 mM phenylmethylsulphonyl fluoride (PMSF) and 2 μg/ml each of leupeptin, aprotinin and pepstatin. Concentration of lysates was determined by the Bradford assay (Bio-Rad Laboratories, Richmond, Calif.) and equal amounts of proteins were used for SDS-PAGE. Samples were analyzed by standard immunoblot procedure and visualized by chemiluminescence (Super Signal West Pico Pierce, Rockford, Ill.). Quantification of protein expression levels was performed with the NIH IMAGE software version 1.62 (by Wayne Rasband, National Institutes of Health, Research Services Branch, NIMH).

[3] = test system: day 14 (orthochromatic) erythroblasts; test: Chemosensitivity of day 14 erythroblasts, cell death by ethidium bromide/acridine orange staining; format: cell-based; settings: 24 hours, 1.5 μg/ml cisplatin or 50 ng/ml camptothecin
Description: as §2, §3, §4

[4] = test system: erythroid and granulocytic precursor cells, uncommitted CD34+ progenitors; test: SCF treatment of purified hematopoietic progenitors and precursors exposed to antineoplastic agents; format: cell-based, human
Description: Purified populations of hematopoietic progenitors and precursors are routinarily obtained in our laboratory through purification of […] cells from peripheral blood and culture in serum-free medium with unilineage growth factors. Hematopoietic progenitor cells display different sensitivity to the cytotoxic effect of chemotherapeutic agents depending on their lineage commitment and stage of maturation. […] The protective effects of SCF are achieved by administrating this cytokine before the cytotoxic treatment, during the course of the treatment itself and after the toxic stimulus has been interrupted. […] Importantly, once the toxic stimulus has been removed, SCF-treated cells re-enter the differentiative pathway, maintaining their ability to complete successfully the normal maturation process.

[5] = test system: anti-apoptotic genes belonging to the Bcl-2 family and to the Notch family; test: Expression of pro- and anti-apoptotic genes in SCF-treated erythroid precursor cells; format: cell-based, human
Description: In order to elucidate the mechanisms responsible for the protective effect of SCF from chemotherapy-induced cell death, we analysed the expression of pro- and anti-apoptotic genes in SCF-treated erythroid precursor cells. SCF induced an upregulation of anti-apoptotic genes belonging to the Bcl-2 family and to the Notch family, as well as an increase in the levels of several transcription factors involved in the control of cellular proliferation and survival.

day 7 erythroblasts = test: Erythroblast recovery and expansion after removal of cisplatin; format: cell-based
Experimental: as §6

[6] = test system: day 7 erythroid culture cells; test: Clonogenetic assay of erythroid unilineage culture cells in semisolid medium; format: cell-based, human; settings: two-days treatment with 100 ng/ml SCF (day 5 to day 7)
Experimental: FIG. 5. […] (A) Clonogenetic assay of CD34^+ cells (day 0) or cells grown in liquid culture and subsequently plated in semisolid medium at day 5 or day 7 of erythroid differentiation. Control cells (day 5 and day 7 Epo) were cultivated in standard erythroid medium before the colony assay, whereas SCF-treated cells (day 7 Epo+SCF) received 100 ng/ml SCF from day 5 to day 7 of liquid culture. (B) Cytofluorimetric analysis of glycophorin A-positive cells in erythroid unilineage culture. Cells were analyzed after five (day 5) or seven days (day 7) of erythroid differentiation in standard erythroid medium (Epo) or in the same medium supplied with 100 ng/ml SCF starting from day 5 (Epo+SCF).
as §3
SCF supports the selective expansion of erythroid cells in unilineage culture conditions after treatment with chemotherapeutic agents. Theoretically, SCF may promote the growth of non-erythroid cells present in small numbers in erythroblastic cultures, and even specifically protect these contaminants from cytotoxic drugs, thus generating a post-chemotherapy population of non-erythroid cells. […]

Bcl-2 and Bcl-XL = test: Western blot analysis of Bcl-2 and Bcl-XL levels in day 7 erythroblasts; format: cell-based, human; settings: erythroblasts treated for two days with 100 ng/ml SCF versus standard erythroid medium
[7] = test system: megakaryocytic precursors; test: Chemotherapy-induced cell death of megakaryocytic cells; format: cell-based; settings: for sensitivity of mature polynucleated megakaryocytic precursors versus day 6 immature precursors: Etoposide 4 micromolar, Daunorubicin 0.5 micromolar or Vincristine 0.5 micromolar
Experimental: Decreased platelet number is a common side effect of chemotherapy. In a separate set of experiments, the protective effect of SCF on chemotherapy-induced cell death was evaluated on megakaryocytic cells, which derive from hematopoietic stem and progenitor cells and give rise to platelets. […] We pretreated immature megakaryocytic precursors at day 4 of differentiation with SCF for 48 hours before exposure to chemotherapeutic agents. SCF was maintained during the exposure to chemotherapic agents.

[8] = in vivo; cited from earlier work

Molecule: N.N.[Cl][Pt][Cl] [cisplatin, reference compound]
- death of CD34 positive cells in absence of SCF (CD34 positive cells; 3 micrograms/mL Cisplatin, proliferating cells (interleukin-3, fms-like tyrosine kinase 3), no SCF): virtually all cells die
- sensitivity to drug-induced apoptosis (CD34+ progenitors): modest sensitivity

Molecule: zVAD-fmk [reference compound]
- effect on chemotherapy-induced erythroblast death ([1]; zVAD 40 μM, camptothecin, cisplatin or etoposide, 24 hours): abrogated completely
- effect on drug-induced caspase activation ([2]; zVAD 40 μM, day 7 erythroblasts, 8 hours): abolished caspase activation

Molecule: CC[C@@]1(O)C(=O)OCc2c1cc1n(c2=O)Cc2cc3ccccc3nc2-1 [camptothecin]
- sensitivity to drug-induced apoptosis (CD34+ progenitors): modest sensitivity
- sensitivity to cytotoxic effect of chemotherapeutic agents ([1]; day 7 immature erythroblasts, 24 hours, 1.5 μg/ml cisplatin or 50 ng/ml camptothecin, saturating Epo): extremely sensitive
- sensitivity to cytotoxic effect of chemotherapeutic agents [3]: almost completely resistant
- caspase activation by cytotoxic drug ([2]; day 7 erythroblasts, 8 hours, 200 ng/ml camptothecin, 3 μg/ml cisplatin or 5 μM etoposide): activated caspase 3, 7 and 8

Molecule: SCF: haematopoietic growth factor, 18.6 KD, ligand of c-Kit; human recombinant SCF purchased from Peprotech
- CD34 positive cells surviving (CD34 positive cells; 3 micrograms/mL Cisplatin, cells induced to proliferate with interleukin-3 (50 units/mL) and fms-like tyrosine kinase 3 (100 nanograms/mL), treated with SCF): about 50%
- expansion and clonogenetic output after removal of chemotherapeutic drugs (CD34 positive cells; SCF-treated cells, clonogenetic assays): able to expand and give rise to all the standard hematopoietic populations
- protection of CD34 positive cells from cytotoxic activity of chemotherapeutic agents (CD34 positive cells; in vitro, Cisplatin, Etoposide and Daunorubicin): protects
- protection from death induced by antineoplastic agents [4]: strong protection
- expression of anti-apoptotic genes of the Bcl-2 family and Notch family [5]: upregulation
- protection of erythroblasts from toxic effects of antineoplastic drugs ([1]; 100 ng/ml SCF from day 5 for 48 hours and during exposure, camptothecin, cisplatin or etoposide): significantly protected
- amount of inactive pro-caspase 3, 7 and 8 versus control erythroblasts ([2]; pretreated two days with SCF, 8 hours camptothecin, cisplatin or etoposide): significantly higher
- proliferative activity after removal of the cytotoxic agent (day 7 erythroblasts; SCF day 5-9, 3 μg/ml cisplatin 48 hours, washed, fresh medium): regained full proliferative activity
- proliferation of survived erythroid cells with SCF maintained after drug removal (day 7 erythroblasts; SCF day 5-21, 3 μg/ml cisplatin 48 hours): high proliferation rate
- survival to cisplatin treatment (day 7 erythroblasts; preincubated two days with 100 ng/ml SCF, 3 μg/ml cisplatin for 48 hours): enhanced survival
- growth of erythroid colonies [6]: significant stimulatory effect
- percentage of granulo-monocytic colonies [6]: did not significantly increase
- Bcl-2 and Bcl-XL protein levels (Bcl-2 and Bcl-XL): upregulated
- protection of megakaryocytic cells from toxic effects of antineoplastic drugs ([7]; 100 ng/ml SCF from day 4 for 48 hours and during exposure, Etoposide, Daunorubicin or Vincristine): significantly protected
- tolerability of administration [8]: generally well tolerated

Molecule: COc1cccc2c1C(=O)c1c(O)c3c(c(O)c1C2=O)C[C@@](O)(C(C)=O)C[C@@H]3O[C@H]1C[C@H](N)[C@H](O)[C@H](C)O1 [Daunorubicin]
- sensitivity of mature polynucleated megakaryocytic precursors versus day 6 immature precursors [7]: more resistant

Molecule: CC[C@]1(O)C[C@H]2CN(CCc3c([nH]c4ccccc34)[C@@](C(=O)OC)(c3cc4c(cc3OC)N(C=O)[C@H]3[C@@](O)(C(=O)OC)[C@H](OC(C)=O)[C@]5(CC)C=CCN6CC[C@]43[C@@H]65)C2)C1 [Vincristine]
- sensitivity of mature polynucleated megakaryocytic precursors versus day 6 immature precursors [7]: more resistant
- death of early megakaryocytic cells ([7]; day 6 precursors, Vincristine 0.5 micromolar): 100%
- death of late megakaryocytic cells ([7]; day 12 precursors, Vincristine 0.5 micromolar): 20%

Molecule: COc1cc([C@@H]2c3cc4c(cc3[C@@H](O[C@@H]3O[C@@H]5CO[C@@H](C)O[C@H]5[C@H](O)[C@H]3O)[C@H]3COC(=O)[C@H]23)OCO4)cc(OC)c1O [etoposide]
- sensitivity of mature polynucleated megakaryocytic precursors versus day 6 immature precursors [7]: more resistant
